Reference: paper PMC6198068, “Discovery of a Novel Nav1.7 Inhibitor From Cyriopagopus albostriatus Venom With Potent Analgesic Efficacy” (Frontiers in Pharmacology, 2018)
Read-outs that look alike come from different tables or passages of the source. Where a SMILES comes first, the peptide text is derived from it. Bridges are numbered along the chain shown (N, C = ends).

Tests used:
Assay type in all cases: cell-based
rat Nav1.4 = target: T1, rat Nav1.4 (Rattus norvegicus, UniProt P15390); experiment: Whole-cell patch-clamp, WT Nav1.4 in HEK293T cells
T1 construct: expressed in transfected cells; host or cells: HEK293T
T1 sequence (P15390 whole entry): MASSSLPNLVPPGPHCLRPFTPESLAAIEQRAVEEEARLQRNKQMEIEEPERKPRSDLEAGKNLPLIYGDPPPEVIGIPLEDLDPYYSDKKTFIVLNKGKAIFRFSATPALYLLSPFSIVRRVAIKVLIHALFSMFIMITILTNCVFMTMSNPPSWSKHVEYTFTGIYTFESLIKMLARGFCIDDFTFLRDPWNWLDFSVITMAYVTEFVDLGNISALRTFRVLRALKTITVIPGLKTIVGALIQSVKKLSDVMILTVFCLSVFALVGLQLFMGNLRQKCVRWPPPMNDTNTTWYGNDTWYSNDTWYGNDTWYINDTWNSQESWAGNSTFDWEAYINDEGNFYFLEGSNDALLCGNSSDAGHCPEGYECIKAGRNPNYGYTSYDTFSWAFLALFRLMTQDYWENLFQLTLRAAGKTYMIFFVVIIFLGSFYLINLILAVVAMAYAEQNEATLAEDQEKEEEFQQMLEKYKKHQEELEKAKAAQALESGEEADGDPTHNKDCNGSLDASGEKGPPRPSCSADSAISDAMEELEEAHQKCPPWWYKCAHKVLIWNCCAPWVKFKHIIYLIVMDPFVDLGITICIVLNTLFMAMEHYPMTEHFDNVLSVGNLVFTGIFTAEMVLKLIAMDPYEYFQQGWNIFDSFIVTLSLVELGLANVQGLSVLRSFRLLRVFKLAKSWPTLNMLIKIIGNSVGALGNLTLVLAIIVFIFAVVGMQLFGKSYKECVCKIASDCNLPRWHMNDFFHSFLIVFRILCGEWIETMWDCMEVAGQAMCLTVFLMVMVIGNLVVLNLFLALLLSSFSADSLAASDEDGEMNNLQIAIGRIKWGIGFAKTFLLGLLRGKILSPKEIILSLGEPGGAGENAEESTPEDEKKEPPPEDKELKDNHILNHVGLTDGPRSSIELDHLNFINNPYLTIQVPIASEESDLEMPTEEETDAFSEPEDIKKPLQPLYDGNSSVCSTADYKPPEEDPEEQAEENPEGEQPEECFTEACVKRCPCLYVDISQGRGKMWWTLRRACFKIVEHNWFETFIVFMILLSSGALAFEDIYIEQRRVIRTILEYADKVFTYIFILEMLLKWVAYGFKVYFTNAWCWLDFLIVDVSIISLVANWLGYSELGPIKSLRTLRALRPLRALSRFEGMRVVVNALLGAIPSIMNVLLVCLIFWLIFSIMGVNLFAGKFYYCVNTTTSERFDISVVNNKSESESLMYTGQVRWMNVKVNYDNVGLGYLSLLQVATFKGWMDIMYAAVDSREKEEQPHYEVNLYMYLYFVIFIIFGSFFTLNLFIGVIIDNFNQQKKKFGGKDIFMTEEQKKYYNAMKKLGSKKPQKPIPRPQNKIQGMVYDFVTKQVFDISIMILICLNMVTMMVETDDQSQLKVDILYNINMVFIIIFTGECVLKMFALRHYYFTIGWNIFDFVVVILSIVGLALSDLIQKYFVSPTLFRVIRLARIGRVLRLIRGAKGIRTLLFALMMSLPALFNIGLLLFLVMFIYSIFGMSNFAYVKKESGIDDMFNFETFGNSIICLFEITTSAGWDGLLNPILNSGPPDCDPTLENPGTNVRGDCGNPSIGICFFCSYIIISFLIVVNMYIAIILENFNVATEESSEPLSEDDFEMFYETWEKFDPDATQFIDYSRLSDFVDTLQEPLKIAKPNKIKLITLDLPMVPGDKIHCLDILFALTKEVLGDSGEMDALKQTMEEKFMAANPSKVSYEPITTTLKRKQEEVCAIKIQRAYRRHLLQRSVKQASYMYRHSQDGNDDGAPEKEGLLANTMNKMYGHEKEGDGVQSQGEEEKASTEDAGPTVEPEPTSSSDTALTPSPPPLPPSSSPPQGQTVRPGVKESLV
Description: (§1) The cDNA genes encoding rat Nav1.4 and human Nav1.7 were subcloned into vectors pRGB4 and pcDNA3.1-mod, respectively. Mutations of rNav1.4 (N655D, Q657E, and N655D/Q657E) and hNav1.7 (D816N, E818Q, and D816N/E818Q) were constructed using the Gene Tailor Site-Directed Mutagenesis system (Invitrogen, Carlsbad, CA, United States), according to the manufacturer’s instructions. Nav1.2–Nav1.7 and mutant plasmids together with eGFP were transiently transfected into HEK293T cells while Nav1.8 together with eGFP was transiently transfected into ND7/23 cells by Lipofectamine 2000 (Invitrogen, Carlsbad, CA, United States). Additionally, plasmids β1- and β2-eGFP encoding the human β1 and β2 subunits, respectively, were co-transfected with those encoding WT Nav1.7 and Nav1.7 mutations in HEK293T cells. Human Nav1.9 was transfected into ND7/23 cells according to a previous report ([Zhou et al., 2017]). HEK293T and ND7/23 cells were grown under standard tissue culture conditions (5% CO2, 37°C) in Dulbecco’s modified Eagle’s medium (DMEM) supplemented with 10% fetal bovine serum (FBS). Cells with green fluorescent protein fluorescence were selected for whole-cell patch-clamp recordings 24 h after transfection.
Whole-cell patch-clamp recordings were performed at room temperature (20–25°C) using an EPC 10 USB Patch Clamp Amplifier (HEKA, Elektronik, Lambrecht, Germany). Suction pipettes with access resistance of 2.0–3.0 MΩ were made from borosilicate glass capillary tubes (thickness = 0.225 mm) using a two-step vertical microelectrode puller (PC-10; Narishige, Tokyo, Japan). The standard pipet solution contained (in mM): 140 CsCl, 10 NaCl, 1 EGTA, and 10 HEPES (pH 7.4). Bath solution contained (in mM): 140 NaCl, 2 CaCl2, 1 MgCl2, 5 KCl, 20 HEPES (pH 7.4), and 10 glucose. All chemicals were the products of Sigma-Aldrich (St. Louis, MO, United States) and dissolved in water. […] Data was analyzed by software Igo Pro 6.10A (WaveMetrics, Lake Oswego, OR, United States), SigmaPlot 10.0 (Sigma-Aldrich, St. Louis, MO, United States), OriginPro 8 (OriginLab Corp., Northampton, MA, United States), and GraphPad Prism 5 (GraphPad Software, San Diego, CA, United States). […]
Concentration-response curves were fitted using the following Hill logistic equation: y = fmax − (fmax − fmin)/(1 + (x/IC50)^n), where fmax and fmin, respectively, represent the channel’s maximum and minimum responses to toxins, fmin was set to 0, x represents toxin concentration and n is an empirical Hill coefficient. […] Peak inward currents from steady-state inactivation were normalized by the maximum current amplitude and fit with a Boltzmann equation I = Imin + 1/(1 + exp[Vm − V1/2/k]) where I is the current amplitude measured during the test depolarization, V1/2 is the midpoint of inaction, and k is the slope factor. […]

Nav1.7 [1] = target: T2, Nav1.7 (Homo sapiens, UniProt Q15858); experiment: Recovery from fast inactivation (repriming) of Nav1.7; settings: 0.2 μM; at –100 mV; control 6.42 ± 0.85 ms; P < 0.05 paired t-test; mean ± SEM, n = 6–11 cells
T2 construct: expressed in transfected cells; host or cells: HEK293T
T2 sequence (O60939 30-215): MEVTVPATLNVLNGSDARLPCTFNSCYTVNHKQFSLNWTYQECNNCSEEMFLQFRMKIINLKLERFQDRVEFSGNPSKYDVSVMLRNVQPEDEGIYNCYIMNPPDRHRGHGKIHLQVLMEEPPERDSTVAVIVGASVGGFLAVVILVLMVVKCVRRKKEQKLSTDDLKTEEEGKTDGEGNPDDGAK
T2 sequence (Q15858 other isoform, or with tags, fused parts or gaps): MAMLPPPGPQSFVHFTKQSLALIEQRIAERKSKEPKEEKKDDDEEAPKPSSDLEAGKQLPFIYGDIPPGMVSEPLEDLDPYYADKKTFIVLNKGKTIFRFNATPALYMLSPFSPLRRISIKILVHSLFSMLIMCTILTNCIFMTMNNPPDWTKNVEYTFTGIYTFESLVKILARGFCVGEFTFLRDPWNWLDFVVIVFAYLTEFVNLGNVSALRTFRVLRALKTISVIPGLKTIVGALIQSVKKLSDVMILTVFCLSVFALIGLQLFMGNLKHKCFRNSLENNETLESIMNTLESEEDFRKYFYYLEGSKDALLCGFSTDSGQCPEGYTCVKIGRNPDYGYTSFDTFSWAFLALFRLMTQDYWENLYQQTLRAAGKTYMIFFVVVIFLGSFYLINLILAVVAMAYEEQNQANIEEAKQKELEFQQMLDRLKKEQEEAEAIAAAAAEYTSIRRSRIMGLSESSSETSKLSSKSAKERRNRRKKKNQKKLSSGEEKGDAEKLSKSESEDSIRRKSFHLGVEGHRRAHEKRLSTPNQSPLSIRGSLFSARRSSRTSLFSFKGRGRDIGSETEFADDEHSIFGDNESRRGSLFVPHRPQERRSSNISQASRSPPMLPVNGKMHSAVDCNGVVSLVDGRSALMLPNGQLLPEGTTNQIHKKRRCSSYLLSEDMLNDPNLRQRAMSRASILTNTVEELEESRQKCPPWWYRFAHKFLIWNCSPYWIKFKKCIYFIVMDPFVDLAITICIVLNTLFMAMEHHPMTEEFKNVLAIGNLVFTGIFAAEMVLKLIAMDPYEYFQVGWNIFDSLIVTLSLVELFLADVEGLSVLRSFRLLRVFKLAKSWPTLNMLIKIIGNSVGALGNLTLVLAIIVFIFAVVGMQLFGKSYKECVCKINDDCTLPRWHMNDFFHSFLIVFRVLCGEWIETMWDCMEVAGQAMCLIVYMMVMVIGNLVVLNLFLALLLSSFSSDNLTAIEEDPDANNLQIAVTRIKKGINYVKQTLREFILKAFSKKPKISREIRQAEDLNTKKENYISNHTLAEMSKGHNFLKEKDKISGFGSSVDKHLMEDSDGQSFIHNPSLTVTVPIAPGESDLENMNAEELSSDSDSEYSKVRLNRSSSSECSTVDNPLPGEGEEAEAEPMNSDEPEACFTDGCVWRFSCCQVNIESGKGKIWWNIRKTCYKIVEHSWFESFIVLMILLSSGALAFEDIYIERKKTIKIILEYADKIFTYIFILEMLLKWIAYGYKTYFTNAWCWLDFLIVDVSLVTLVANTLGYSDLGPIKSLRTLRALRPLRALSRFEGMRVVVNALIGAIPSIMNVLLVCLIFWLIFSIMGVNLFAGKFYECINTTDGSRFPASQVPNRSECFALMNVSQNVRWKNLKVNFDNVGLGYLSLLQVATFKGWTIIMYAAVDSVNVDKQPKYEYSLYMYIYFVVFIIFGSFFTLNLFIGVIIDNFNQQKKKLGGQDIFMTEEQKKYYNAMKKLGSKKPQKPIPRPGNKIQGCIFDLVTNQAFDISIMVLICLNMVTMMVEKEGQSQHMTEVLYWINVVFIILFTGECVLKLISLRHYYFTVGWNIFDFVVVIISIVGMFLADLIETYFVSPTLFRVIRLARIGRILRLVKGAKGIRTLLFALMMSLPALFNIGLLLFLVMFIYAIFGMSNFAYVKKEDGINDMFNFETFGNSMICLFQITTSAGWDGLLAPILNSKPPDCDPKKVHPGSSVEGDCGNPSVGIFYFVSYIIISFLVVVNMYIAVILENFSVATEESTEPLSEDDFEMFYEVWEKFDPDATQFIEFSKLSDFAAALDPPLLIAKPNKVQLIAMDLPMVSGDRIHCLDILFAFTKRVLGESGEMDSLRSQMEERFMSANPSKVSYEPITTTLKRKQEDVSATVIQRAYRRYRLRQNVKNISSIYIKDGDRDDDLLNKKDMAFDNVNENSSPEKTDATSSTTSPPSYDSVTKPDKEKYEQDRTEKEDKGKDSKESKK
T2 sequence (Q07699 19-218, further chain): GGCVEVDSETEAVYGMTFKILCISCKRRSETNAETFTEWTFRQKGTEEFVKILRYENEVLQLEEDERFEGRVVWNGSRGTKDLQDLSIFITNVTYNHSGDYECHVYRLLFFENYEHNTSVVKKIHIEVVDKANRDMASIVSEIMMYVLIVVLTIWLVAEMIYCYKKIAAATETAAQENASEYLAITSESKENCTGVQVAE
Description: The cDNA genes encoding rat Nav1.4 and human Nav1.7 were subcloned into vectors pRGB4 and pcDNA3.1-mod, respectively. Mutations of rNav1.4 (N655D, Q657E, and N655D/Q657E) and hNav1.7 (D816N, E818Q, and D816N/E818Q) were constructed using the Gene Tailor Site-Directed Mutagenesis system (Invitrogen, Carlsbad, CA, United States), according to the manufacturer’s instructions. Nav1.2–Nav1.7 and mutant plasmids together with eGFP were transiently transfected into HEK293T cells while Nav1.8 together with eGFP was transiently transfected into ND7/23 cells by Lipofectamine 2000 (Invitrogen, Carlsbad, CA, United States). […] Cells with green fluorescent protein fluorescence were selected for whole-cell patch-clamp recordings 24 h after transfection.
(§2) Whole-cell patch-clamp recordings were performed at room temperature (20–25°C) using an EPC 10 USB Patch Clamp Amplifier (HEKA, Elektronik, Lambrecht, Germany). […] Data was analyzed by software Igo Pro 6.10A (WaveMetrics, Lake Oswego, OR, United States), SigmaPlot 10.0 (Sigma-Aldrich, St. Louis, MO, United States), OriginPro 8 (OriginLab Corp., Northampton, MA, United States), and GraphPad Prism 5 (GraphPad Software, San Diego, CA, United States). […]
Fast inactivation time constants were calculated by fitting current decay traces with a single exponential function using the I–V protocol described above. […]

Nav1.7 [2] = target: T2, Nav1.7; experiment: Use/frequency-dependent inhibition of Nav1.7; settings: n = 4-5; for IC50: read-out: IC50 Nav1.7, repetitive pulses
Description: as §1, with “HEK293T and ND7/23 cells were grown under standard tissue culture conditions (5% CO2, 37°C) in Dulbecco’s modified Eagle’s medium (DMEM) supplemented with 10% fetal bovine serum (FBS).” left out
as §2
Fast inactivation time constants were calculated by fitting current decay traces with a single exponential function using the I–V protocol described above. Recovery from fast-inactivation (repriming) was assessed by using a two-pulse protocol consisting of a depolarizing pulse to −10 mV for 50 ms to inactivate channels, followed by a step to −100 mV of variable duration (1 to 1024 ms) to promote recovery, and 50 ms test pulse to −10 mV to assess availability of channels. […]

SMILES: CC(C)C[C@H](NC(=O)[C@H](CC(=O)O)NC(=O)[C@H](Cc1ccc(O)cc1)NC(=O)[C@H](CCCCN)NC(=O)[C@@H]1CSSC[C@@H]2NC(=O)[C@H](CCCCN)NC(=O)[C@H](CC(=O)O)NC(=O)[C@H](CC(N)=O)NC(=O)[C@H](CO)NC(=O)[C@@H]3CCCN3C(=O)[C@H](CC(N)=O)NC(=O)[C@@H]3CSSC[C@H](NC(=O)[C@H](C(C)C)NC(=O)[C@H](CC(C)C)NC(=O)[C@H](CO)NC(=O)[C@H](CO)NC(=O)[C@H](CO)NC(=O)[C@H](CCCCN)NC(=O)[C@H](CSSC[C@H](NC(=O)[C@H](C)N)C(=O)N[C@@H](CC(C)C)C(=O)NCC(=O)N[C@@H](Cc4ccccc4)C(=O)NCC(=O)N[C@@H](CCC(=O)O)C(=O)N[C@@H](CCCCN)C(=O)N3)NC2=O)C(=O)N[C@@H](CO)C(=O)N[C@@H](CCC(N)=O)C(=O)N[C@@H](CCCCN)C(=O)N[C@@H](Cc2c[nH]cn2)C(=O)N[C@@H](CCCCN)C(=O)N[C@@H](Cc2c[nH]c3ccccc23)C(=O)N1)C(=O)O [Ca2a] (H-ACLGFGEKCNPSNDKCCKSSSLVCSQKHKWCKYDL-OH; disulfide 2-17, 9-24, 16-31 (inferred); N-terminus and C-terminus assumed)
- inhibitory effect on WT Nav1.4 (rat Nav1.4; 1 μM, HEK293T, n = 4–5 cells): no inhibitory effect
- selectivity for Nav1.7 against Nav1.4 (rat Nav1.4; skeletal isoform Nav1.4 vs Nav1.7): more than 100 fold
- IC50 (rat Nav1.4; skeletal muscle isoform, whole-cell patch-clamp, HEK293T): > 10000 nM
- inhibitory effect on Nav1.4 currents (rat Nav1.4; up to 10 μM, HEK293T): no inhibitory effects
- τ of recovery from fast inactivation at Nav1.7 (Nav1.7 [1]): 8.93 ± 1.62 ms
- use/frequency dependence of inhibition for Nav1.7 (Nav1.7 [2]; 1, 5 and 10 Hz): did not show obvious use/frequency dependence
- IC50 (Nav1.7 [2]; 5 Hz): 244 ± 30.7 nM
- IC50 (Nav1.7 [2]; 10 Hz): 185 ± 23.8 nM
